Laboratory results from the NIST ThermoML archive (doi:10.1021/je7003758).

Test: xn = mol fraction of the nth substance listed
Settings: 298.15 K, Liquid

CCCCCCCl [1-chlorohexane] + CN1CCCC1=O
mass density [kg/m3]
Settings | x2 = 0.1003 | x2 = 0.1988 | x2 = 0.305 | x2 = 0.4005 | x2 = 0.5007 | x2 = 0.5974 | x2 = 0.7016 | x2 = 0.8002 | x2 = 0.8995
100 kPa | 884.9 | 897 | 911 | 924.2 | 938.9 | 954.1 | 971.5 | 988.7 | 1007.4
500 kPa | 885.2 | 897.3 | 911.2 | 924.5 | 939.2 | 954.4 | 971.7 | 988.9 | 1007.6
1000 kPa | 885.5 | 897.6 | 911.6 | 924.9 | 939.5 | 954.6 | 972.1 | 989.2 | 1007.9
1500 kPa | 886 | 898.1 | 912 | 925.3 | 939.9 | 955 | 972.4 | 989.5 | 1008.2
1900 kPa | – | – | 912.3 | – | – | – | – | – | –
2000 kPa | 886.4 | 898.4 | – | 925.6 | 940.2 | 955.3 | 972.7 | 989.8 | 1008.4
2500 kPa | 886.8 | 898.9 | 912.8 | 926 | 940.6 | 955.7 | 973 | 990.1 | 1008.7
3000 kPa | 887.2 | 899.2 | 913.2 | 926.4 | 941 | 956 | 973.4 | 990.4 | 1009
3500 kPa | 887.7 | 899.6 | 913.6 | 926.8 | 941.3 | 956.2 | 973.7 | 990.6 | 1009.3
4000 kPa | 888 | 900 | – | 927.1 | 941.6 | 956.6 | 974 | 991 | 1009.6
4100 kPa | – | – | 914 | – | – | – | – | – | –
4500 kPa | 888.4 | 900.4 | 914.3 | – | 942 | 956.9 | 974.3 | 991.2 | 1009.8
4600 kPa | – | – | – | 927.5 | – | – | – | – | –
4900 kPa | 888.7 | – | – | – | – | – | – | – | –
5000 kPa | – | 900.8 | 914.6 | 927.8 | 942.3 | 957.3 | 974.6 | 991.5 | 1010.1
5500 kPa | 889.2 | 901.2 | 915 | 928.2 | 942.7 | 957.6 | 974.8 | 991.8 | 1010.4
5900 kPa | 889.6 | – | – | – | – | – | – | – | –
6000 kPa | – | 901.6 | 915.4 | 928.6 | 943 | 958 | 975.2 | 992.2 | 1010.7
6500 kPa | 890.1 | 902 | 915.8 | 928.9 | 943.3 | 958.3 | 975.5 | 992.4 | 1011
7000 kPa | 890.4 | 902.4 | 916.2 | 929.2 | 943.7 | 958.6 | 975.8 | 992.7 | 1011.2
7400 kPa | – | 902.7 | – | – | – | – | – | – | –
7500 kPa | 890.8 | – | 916.6 | 929.6 | 944 | 958.9 | 976.1 | 993.1 | 1011.5
8000 kPa | 891.2 | 903.1 | 917 | 929.9 | 944.3 | 959.2 | 976.4 | 993.3 | 1011.8
8400 kPa | 891.6 | – | 917.2 | – | – | – | – | – | –
8500 kPa | – | – | – | 930.3 | 944.7 | 959.5 | 976.7 | 993.6 | 1012
8600 kPa | – | 903.6 | – | – | – | – | – | – | –
8900 kPa | 892 | – | – | – | 945 | 959.8 | – | – | –
9000 kPa | – | 903.8 | 917.7 | 930.7 | – | – | 977 | 993.9 | 1012.3
9400 kPa | – | – | – | 930.9 | – | – | – | – | –
9500 kPa | 892.4 | 904.2 | 918.1 | – | 945.3 | 960.1 | 977.3 | 994.2 | 1012.6
9900 kPa | – | – | – | – | – | – | 977.7 | – | –
10000 kPa | 892.9 | 904.7 | 918.6 | 931.4 | 945.7 | 960.5 | – | 994.5 | 1012.9
10500 kPa | 893.2 | 905.1 | 918.8 | 931.7 | 946 | 960.8 | 978 | 994.8 | 1013.2
11000 kPa | 893.5 | 905.4 | 919.2 | 932.1 | 946.4 | 961.1 | 978.3 | 995.1 | 1013.5
11400 kPa | 893.9 | – | – | – | – | 961.4 | – | – | –
11500 kPa | – | 905.8 | 919.6 | 932.4 | 946.8 | – | 978.6 | 995.4 | 1013.8
11900 kPa | – | – | – | – | 947 | – | 978.9 | – | –
12000 kPa | 894.3 | 906.2 | 919.9 | 932.8 | – | 961.8 | – | 995.7 | 1014
12400 kPa | – | 906.5 | – | – | – | – | – | 995.9 | 1014.2
12500 kPa | 894.7 | – | 920.2 | 933.1 | 947.3 | 962.2 | – | – | –
12600 kPa | – | – | – | – | – | – | 979.2 | – | –
12900 kPa | – | – | – | – | – | – | 979.4 | – | –
13000 kPa | 895.1 | 907.1 | 920.6 | 933.4 | 947.7 | 962.4 | – | 996.3 | 1014.5
13400 kPa | – | 907.3 | – | – | 948 | – | 979.7 | 996.5 | –
13500 kPa | 895.5 | – | 921 | 933.8 | – | 962.6 | – | – | 1014.8
13900 kPa | – | – | – | – | 948.3 | – | – | – | –
14000 kPa | 895.9 | 907.7 | 921.3 | 934.1 | – | 963.1 | 980.1 | 996.8 | 1015.1
14400 kPa | – | – | 921.6 | 934.4 | – | – | – | – | –
14500 kPa | 896.3 | 908 | – | – | 948.6 | 963.4 | 980.3 | 997.1 | 1015.4
15000 kPa | 896.6 | 908.4 | 922 | 934.8 | 949 | 963.7 | 980.7 | 997.4 | 1015.6
15400 kPa | 896.9 | – | – | – | – | – | – | – | –
15500 kPa | – | 908.7 | 922.3 | 935.1 | 949.3 | 964 | 981 | 997.6 | 1015.8
15900 kPa | – | – | – | – | – | 964.2 | – | – | –
16000 kPa | 897.4 | 909 | 922.7 | 935.4 | 949.6 | – | 981.3 | – | 1016.1
16100 kPa | – | – | – | – | – | – | – | 998 | –
16500 kPa | 897.7 | 909.4 | 923 | 935.7 | 949.9 | 964.6 | 981.5 | 998.2 | 1016.4
16900 kPa | – | 909.7 | – | – | – | 964.8 | – | – | 1016.6
17000 kPa | 898 | – | 923.4 | 936 | 950.2 | – | 981.8 | 998.4 | –
17400 kPa | – | – | – | – | 950.5 | – | 982 | – | –
17500 kPa | 898.4 | 910.1 | 923.6 | – | – | 965.1 | – | 998.8 | 1016.9
17600 kPa | – | – | – | 936.5 | – | – | – | – | –
18000 kPa | 898.8 | 910.5 | 924 | 936.7 | 950.8 | 965.4 | 982.3 | 999 | 1017.1
18400 kPa | – | – | – | 937 | 951.1 | – | – | – | –
18500 kPa | 899.1 | 910.9 | 924.3 | – | – | 965.7 | 982.7 | 999.2 | –
18700 kPa | – | – | – | – | – | – | – | – | 1017.5
19000 kPa | 899.5 | 911.3 | 924.7 | 937.4 | 951.5 | 966 | 983 | 999.6 | 1017.8
19500 kPa | 899.8 | 911.6 | 925 | 937.8 | 951.8 | 966.3 | 983.3 | 999.8 | 1017.9
20000 kPa | 900.3 | 912 | 925.4 | 938.2 | 952.2 | 966.7 | 983.8 | 1000.2 | 1018.3
